Assay results as given in patent publication US20030139349A1, “Benzophenone alpha-d-glycopyranosides, preparation and therapeutic use” (priority 2002, published 2003).

The compounds below were run on female mice of the C57BL/6J strain (assay: Lowering of serum cholesterol level in mice subjected to a fatty diet (single dose)). Details: total serum cholesterol; female C57BL/6J mice on fatty diet (1.25% cholesterol, 0.5% cholic acid); single dose 100 mg/kg by tubage, suspension in 3% aqueous gum.
Assay type: in vivo
Procedure: The antiatheromatous activity of the compounds according to the invention was evaluated as a function of their ability to lower the serum cholesterol level in mice subjected to a fatty diet. […] This correlation affords a test which is more rapid than direct experiments on the atheromatous plaque, which require a lengthy treatment of the animals and an expensive histological study of the walls of the aortic arch.
The test used consists in administering a single dose of the compound to female mice of the C57BL/6J strain. The protocol is as follows: On the first day (D0), the mice are fasted from 9 am to 5 pm, a blood sample being taken at 2 pm. At 5 pm, a given amount of food (a fatty diet comprising 1.25% of cholesterol and 0.5% of cholic acid) is distributed. On the second day (D1), the food leftovers are weighed at 9 am and the mice are fasted from 9 am to 2 pm. A blood sample is taken at 2 pm. For the treated groups of mice, the compound is administered at 9 am on the second day (D1) by tubage in the form of a suspension in a 3% aqueous solution of gum. The control groups receive only the aqueous gum.
The compounds were tested at a dose of 100 mg/kg. The total serum cholesterol is assayed and the results are expressed as the percentage inhibition of the increase in cholesterolemia compared with the control group.
With `N#Cc1ccc(C(=O)c2ccc(O[C@H]3OC[C@@H](O)[C@@H](O)[C@@H]3O)cc2)cc1` [Example 8, [4-(4-Cyanobenzoyl)phenyl]α-D-arabinopyranoside] the “Activity (%): percentage inhibition of the increase in cholesterolemia compared with the control group” value was −29%.
For `N#Cc1ccc(C(=O)c2ccc(O[C@H]3O[C@H](CO)[C@H](O)[C@H](O)[C@H]3O)cc2)cc1` [Example 6, [4-(4-Cyanobenzoyl)phenyl]α-D-galactopyranoside], the “Activity (%): percentage inhibition of the increase in cholesterolemia compared with the control group” value was −35%.
For `CC(=O)OC[C@H]1O[C@H](Oc2ccc(C(=O)c3ccc(C#N)cc3)cc2)[C@H](OC(C)=O)[C@@H](OC(C)=O)[C@H]1OC(C)=O` [Example 5, [4-(4-Cyanobenzoyl)phenyl]2,3,4,6-tetra-O-acetyl-α-D-galactopyranoside], the “Activity (%): percentage inhibition of the increase in cholesterolemia compared with the control group” value was −32%.
For `N#Cc1ccc(C(=O)c2ccc(O[C@H]3OC[C@@H](O)[C@H](O)[C@@H]3O)cc2)cc1` [Example 10, [4-(4-Cyanobenzoyl)phenyl]α-D-lyxopyranoside], the “Activity (%): percentage inhibition of the increase in cholesterolemia compared with the control group” value was −48%.
With `CC(=O)OC[C@H]1O[C@H](Oc2ccc(C(=O)c3ccc(C#N)cc3)cc2)[C@@H](OC(C)=O)[C@@H](OC(C)=O)[C@@H]1OC(C)=O` [Example 3, [4-(4-Cyanobenzoyl)phenyl]2,3,4,6-tetra-O-acetyl-α-D-mannopyranoside] the “Activity (%): percentage inhibition of the increase in cholesterolemia compared with the control group” value was −10%.
With `N#Cc1ccc(C(=O)c2ccc(O[C@H]3O[C@H](CO)[C@@H](O)[C@H](O)[C@H]3O)cc2)cc1` [Example 2, [4-(4-Cyanobenzoyl)phenyl]α-D-glucopyranoside] the “Activity (%): percentage inhibition of the increase in cholesterolemia compared with the control group” value was −23%.
For `N#Cc1ccc(C(=O)c2ccc(O[C@H]3OC[C@@H](O)[C@@H](O)[C@H]3O)cc2)cc1` [Example 11, [4-(4-Cyanobenzoyl)phenyl]α-D-ribopyranoside], the “Activity (%): percentage inhibition of the increase in cholesterolemia compared with the control group” value was −26%.
In the case of `CC(=O)OC[C@H]1O[C@H](Oc2ccc(C(=O)c3ccc(C#N)cc3)cc2)[C@H](OC(C)=O)[C@@H](OC(C)=O)[C@@H]1OC(C)=O` [Example 1, [4-(4-Cyanobenzoyl)phenyl]2,3,4,6-tetra-O-acetyl-α-D-glucopyranoside], the “Activity (%): percentage inhibition of the increase in cholesterolemia compared with the control group” value is reported as −27%.
`N#Cc1ccc(C(=O)c2ccc(O[C@H]3O[C@H](CO)[C@@H](O)[C@H](O)[C@@H]3O)cc2)cc1` [Example 4, [4-(4-Cyanobenzoyl)phenyl]α-D-mannopyranoside] was tested, and the “Activity (%): percentage inhibition of the increase in cholesterolemia compared with the control group” value was −38%.
With `CC(=O)O[C@@H]1[C@@H](Oc2ccc(C(=O)c3ccc(C#N)cc3)cc2)OC[C@@H](OC(C)=O)[C@H]1OC(C)=O` [Example 7, [4-(4-Cyanobenzoyl)phenyl]2,3,4-tri-O-acetyl-α-D-arabinopyranoside] the “Activity (%): percentage inhibition of the increase in cholesterolemia compared with the control group” value was −25%.
